This passage reports IC50 results from patent publication US20240336574A1 (LATIGO BIOTHERAPEUTICS, INC., priority 2021, published 2024).

The assay addresses T1, recombinant human NaV1.8 stably transfected HEK cells (Homo sapiens, UniProt Q9Y5Y9).
T1 construct: expressed in transfected cells; host or cells: HEK cells, stably transfected
As to the kind of experiment: Compound profiling on NaV1.8, human NaV1.8 cell line, SyncroPatch384PE automated patch clamp assay (Example 102, first set of compounds, Table 16). As to conditions: human NaV1.8 HEK cells, Table 16 (first set of compounds). In kind it is cell-based. In outline: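 IC50s come from two read-outs: resting-state block (P1, 10 mV step from −120 mV) and inactivated-state block (P2, after 10 s at −40 mV), scaled between DMSO and 250 μM tetracaine. Compounds (20–0.001 μM final, 1:3 steps) were applied for 5 min, 15 s sweeps. Cells kept at 30 °C the day before.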
Background: Patch clamp records ionic current or voltage across a cell membrane.

Setting [1] is: inactivated state block (P2 measurement), read-out: P2IC50.
Where [2] appears, read: resting state block (P1 measurement), read-out: P1IC50.

Read-outs that look alike come from different tables or passages of the source. Some results are limits rather than exact numbers.

T1 sequence (Q9Y5Y9 whole entry): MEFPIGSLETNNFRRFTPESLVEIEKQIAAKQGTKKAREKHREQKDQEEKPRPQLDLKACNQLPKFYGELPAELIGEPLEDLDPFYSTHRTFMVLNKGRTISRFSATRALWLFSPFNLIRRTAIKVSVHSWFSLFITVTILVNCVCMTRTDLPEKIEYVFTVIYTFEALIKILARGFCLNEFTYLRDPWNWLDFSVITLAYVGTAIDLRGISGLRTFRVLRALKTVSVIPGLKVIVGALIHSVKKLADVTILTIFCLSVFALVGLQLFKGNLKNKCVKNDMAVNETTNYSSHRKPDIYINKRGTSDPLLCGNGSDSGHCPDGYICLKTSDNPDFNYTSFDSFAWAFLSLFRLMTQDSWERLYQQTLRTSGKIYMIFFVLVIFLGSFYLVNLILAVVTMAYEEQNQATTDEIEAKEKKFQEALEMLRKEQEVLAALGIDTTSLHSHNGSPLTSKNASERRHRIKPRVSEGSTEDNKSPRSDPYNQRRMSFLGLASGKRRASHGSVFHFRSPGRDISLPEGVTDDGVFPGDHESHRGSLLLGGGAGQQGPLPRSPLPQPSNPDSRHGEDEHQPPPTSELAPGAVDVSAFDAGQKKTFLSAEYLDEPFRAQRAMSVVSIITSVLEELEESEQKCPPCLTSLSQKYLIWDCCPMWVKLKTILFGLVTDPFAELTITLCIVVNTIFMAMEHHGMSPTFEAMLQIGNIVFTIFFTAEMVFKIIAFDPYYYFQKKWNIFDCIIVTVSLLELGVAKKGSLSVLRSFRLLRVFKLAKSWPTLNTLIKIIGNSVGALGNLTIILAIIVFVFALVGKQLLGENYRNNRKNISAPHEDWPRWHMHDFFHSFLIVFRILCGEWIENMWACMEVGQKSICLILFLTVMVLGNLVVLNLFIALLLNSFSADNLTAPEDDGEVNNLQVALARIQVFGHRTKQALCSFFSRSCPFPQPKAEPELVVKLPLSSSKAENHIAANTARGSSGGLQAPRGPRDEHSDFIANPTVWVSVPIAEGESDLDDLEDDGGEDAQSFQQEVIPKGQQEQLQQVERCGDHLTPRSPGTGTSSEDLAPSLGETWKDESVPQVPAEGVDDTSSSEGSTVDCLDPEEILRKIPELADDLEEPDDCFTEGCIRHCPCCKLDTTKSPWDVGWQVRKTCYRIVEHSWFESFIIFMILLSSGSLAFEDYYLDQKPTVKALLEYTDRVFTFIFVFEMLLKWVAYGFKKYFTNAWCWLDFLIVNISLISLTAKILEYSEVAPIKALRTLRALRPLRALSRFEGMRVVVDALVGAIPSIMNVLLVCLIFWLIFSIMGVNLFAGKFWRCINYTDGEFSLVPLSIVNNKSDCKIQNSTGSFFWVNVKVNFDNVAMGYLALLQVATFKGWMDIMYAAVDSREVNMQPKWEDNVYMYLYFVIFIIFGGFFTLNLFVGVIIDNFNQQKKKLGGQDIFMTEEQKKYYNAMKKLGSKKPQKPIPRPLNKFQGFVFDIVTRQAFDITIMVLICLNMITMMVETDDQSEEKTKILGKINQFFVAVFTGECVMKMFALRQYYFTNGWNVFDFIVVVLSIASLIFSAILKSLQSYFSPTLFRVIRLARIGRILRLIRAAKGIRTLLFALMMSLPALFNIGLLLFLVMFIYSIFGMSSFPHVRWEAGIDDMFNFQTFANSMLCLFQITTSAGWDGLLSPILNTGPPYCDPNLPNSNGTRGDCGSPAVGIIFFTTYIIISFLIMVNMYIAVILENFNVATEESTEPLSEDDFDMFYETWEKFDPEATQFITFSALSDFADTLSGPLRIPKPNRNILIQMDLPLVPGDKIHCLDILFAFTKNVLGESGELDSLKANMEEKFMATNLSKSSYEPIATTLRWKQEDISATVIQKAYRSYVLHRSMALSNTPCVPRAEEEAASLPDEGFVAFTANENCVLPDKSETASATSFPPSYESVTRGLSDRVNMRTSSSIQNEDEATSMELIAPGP

Regarding `COc1ncc(Oc2ncc(C(F)(F)F)cc2C(=O)Nc2cccc(S(C)(=N)=O)c2)cc1F` (stereo not drawn) [Compound 1699], the IC50 by setting is: under setting [1], 0.2 to 0.5 µM; under setting [2], 0.2 to 0.5 µM.

As for `Cc1c(C(F)(F)F)nnc(Oc2ccc(OC(F)F)c(F)c2F)c1C(=O)Nc1cccc(S(C)(=N)=O)c1` (single isomer, unassigned) [Compound 1511, 3-[4-(difluoromethoxy)-2,3-difluorophenoxy]-N-{3-[imino(methyl)oxo-λ^6-sulfanyl]phenyl}-5-methyl-6-(trifluoromethyl)pyridazine-4-carboxamide], the IC50 runs as follows: under setting [1], ≤ 0.02 µM; under setting [2], ≤ 0.02 µM. `COc1ccc(-c2nnc(Oc3ccc(C#N)cc3OC)c(C(=O)Nc3cccc([S@@](C)(=N)=O)c3)c2C)cc1` [Compound 1536, 3-(4-cyano-2-methoxyphenoxy)-N-{3-[(S)-imino(methyl)oxo-λ^6-sulfanyl]phenyl}-6-(4-methoxyphenyl)-5-methylpyridazine-4-carboxamide]: the IC50 fell in the range of 0.04 to 0.2 µM under setting [1] and 0.04 to 0.2 µM under setting [2]. For the compound `COc1cc(C#N)ccc1Oc1nnc(C(F)(F)F)c(C)c1C(=O)Nc1cccc([S@@](C)(=N)=O)c1` (single isomer, unassigned) [Compound 1479], the IC50 under setting [1] was ≤ 0.02 µM and the IC50 under setting [2] was ≤ 0.02 µM. Take `Cc1cc(F)ccc1Oc1nnc(C(F)(F)F)c(-c2ccccc2)c1C(=O)Nc1cccc([S@@](C)(=N)=O)c1` [Compound 1520, (S)-3-(4-fluoro-2-methylphenoxy)-N-(3-(S-methylsulfonimidoyl)phenyl)-5-phenyl-6-(trifluoromethyl)pyridazine-4-carboxamide]: the IC50 lay in the range of 0.2 to 0.5 µM under setting [1] and 0.2 to 0.5 µM under setting [2]. As for `NC(=O)c1ccc(NC(=O)c2cc(C(F)(F)F)cnc2Oc2ccc(C(F)F)nc2)cc1` [Compound 1676], the IC50 is, setting by setting: under setting [1], 0.2 to 0.5 µM; under setting [2], 0.2 to 0.5 µM. As for `Cc1cc(F)ccc1Oc1nnc(C(F)(F)F)c(C)c1C(=O)Nc1cccc(S(C)(=N)=O)c1` (stereo not drawn) [Compound 20, 3-(4-Fluoro-2-methylphenoxy)-5-methyl-N-(3-(S-methylsulfonimidoyl)phenyl)-6-(trifluoromethyl)pyridazine-4-carboxamide], the IC50 by setting is: under setting [1], 0.02 to 0.04 µM; under setting [2], ≤ 0.02 µM. The like results for `CS(=N)(=O)c1cccc(NC(=O)c2cc(C(F)(F)F)cnc2Oc2ccc(-c3ccccc3)cc2)c1` (stereo not drawn) [Compound 1585] were, in that order, 0.2 to 0.5 µM and 0.2 to 0.5 µM. The like results for `COc1nc(C2CC2)ccc1Oc1nnc(C(F)(F)F)c(C)c1C(=O)Nc1cccc(S(C)(=N)=O)c1` (stereo not drawn) [Compound 1550, 3-[(6-cyclopropyl-2-methoxy-3-pyridyl)oxy]-5-methyl-N-[3-(methylsulfonimidoyl)phenyl]-6-(trifluoromethyl)pyridazine-4-carboxamide] were, in that order, ≤ 0.02 µM and ≤ 0.02 µM. As to `Cc1c(C(F)(F)F)nnc(Oc2ccc(OC(F)(F)F)c(F)c2F)c1C(=O)Nc1cccc(S(C)(=N)=O)c1` (single isomer, unassigned) [Compound 1478, 3-[2,3-difluoro-4-(trifluoromethoxy)phenoxy]-5-methyl-N-[3-(methylsulfonimidoyl)phenyl]-6-(trifluoromethyl)pyridazine-4-carboxamide], under setting [2], the IC50 was ≤ 0.02 µM. For the compound `COc1cc(Cl)ccc1Oc1nnc(C(F)(F)F)c(C)c1C(=O)Nc1cccc(S(C)(=N)=O)c1` (single isomer, unassigned) [Compound 1481, 3-(4-chloro-2-methoxyphenoxy)-5-methyl-N-(3-(S-methylsulfonimidoyl)phenyl)-6-(trifluoromethyl)pyridazine-4-carboxamide], the IC50 reads like this: under setting [1], ≤ 0.02 µM; under setting [2], ≤ 0.02 µM. Turning to `Cc1c(Oc2ncc(C(F)(F)F)cc2C(=O)Nc2cccc(S(C)(=N)=O)c2)ccc(OC(F)(F)F)c1F` (single isomer, unassigned) [Compound 1714], the IC50 is ≤ 0.02 µM under setting [1] and ≤ 0.02 µM under setting [2]. Consider `CC(C)Oc1ccc(Oc2ncc(C(F)(F)F)cc2C(=O)Nc2cccc(C(N)=O)c2)c(F)c1` [Compound 1708], for which the IC50 reads like this: under setting [1], 0.2 to 0.5 µM; under setting [2], 0.2 to 0.5 µM.

In the case of `COc1cc(C#N)ccc1Oc1nnc(C(F)(F)F)c(C)c1C(=O)Nc1cccnc1` [Compound 1543, 3-(4-cyano-2-methoxy-phenoxy)-5-methyl-N-(3-pyridyl)-6-(trifluoromethyl)pyridazine-4-carboxamide], the IC50 under setting [1] fell in the range of 0.04 to 0.2 µM and the IC50 under setting [2] was in the range of 0.04 to 0.2 µM. Regarding `CC(C#N)Oc1cc(F)c(Oc2ncc(C(F)(F)F)cc2C(=O)Nc2cccc(S(C)(=N)=O)c2)cc1F` (stereo not drawn) [Compound 1689], the IC50 runs as follows: under setting [1], 0.04 to 0.2 µM; under setting [2], 0.04 to 0.2 µM. Regarding `Cc1nc(C#N)ccc1Oc1ncc(C(F)(F)F)cc1C(=O)Nc1cccc(S(C)(=O)=O)c1` [Compound 1693], the IC50 is ≤ 0.02 µM under setting [1] and ≤ 0.02 µM under setting [2]. For the compound `CS(=N)(=O)c1cccc(NC(=O)c2cc(C(F)(F)F)cnc2Oc2ccc(OC(F)F)nc2)c1` (stereo not drawn) [Compound 1646], the IC50 was 0.04 to 0.2 µM under setting [1] and 0.04 to 0.2 µM under setting [2].

For `COc1cc(F)ccc1Oc1nnc(C(F)(F)F)c(C)c1C(=O)Nc1ccc(C(N)=O)cc1` [Compound 1415], the IC50 is, setting by setting: under setting [1], ≤ 0.02 µM; under setting [2], ≤ 0.02 µM. Turning to `Cc1c(C(F)(F)F)nnc(Oc2ccc(OC(C)C)c(F)c2F)c1C(=O)Nc1ccnnc1` [Compound 1412], the IC50 runs as follows: under setting [1], ≤ 0.02 µM; under setting [2], ≤ 0.02 µM. As for `COc1cc(C#N)ccc1Oc1ncc(C(F)(F)F)cc1C(=O)Nc1cccc(S(C)(=N)=O)c1` (stereo not drawn) [Compound 1562, 2-(4-cyano-2-methoxyphenoxy)-N-{3-[imino(methyl)oxo-λ^6-sulfanyl]phenyl}-5-(trifluoromethyl)pyridine-3-carboxamide], the IC50 is, setting by setting: under setting [1], ≤ 0.02 µM; under setting [2], ≤ 0.02 µM.

Regarding `COc1ccc(Oc2nnc(C(F)(F)F)c(C)c2C(=O)Nc2cccc(S(C)(=N)=O)c2)c(C)c1F` (stereo not drawn) [Compound 1504, 3-(3-fluoro-4-methoxy-2-methylphenoxy)-N-{3-[imino(methyl)oxo-λ^6-sulfanyl]phenyl}-5-methyl-6-(trifluoromethyl)pyridazine-4-carboxamide], the IC50 runs as follows: under setting [1], ≤ 0.02 µM; under setting [2], ≤ 0.02 µM. Consider `Cc1ccc2c(Oc3ncc(C(F)(F)F)cc3C(=O)Nc3cccc(S(C)(=O)=O)c3)cccc2n1` [Compound 1625], for which the IC50 under setting [1] was 0.2 to 0.5 µM and the IC50 under setting [2] lay in the range of 0.2 to 0.5 µM.

For the compound `Cc1cc(C(F)(F)F)ccc1Oc1ncc(C(F)(F)F)cc1C(=O)Nc1cccc(S(C)(=O)=O)c1` [Compound 1595], the IC50 by setting is: under setting [1], ≤ 0.02 µM; under setting [2], 0.02 to 0.04 µM. Regarding `NC(=O)c1cccc(NC(=O)c2cc(C(F)(F)F)cnc2Oc2ccc(OC(F)F)cc2)c1` [Compound 1635], the IC50 runs as follows: under setting [1], 0.04 to 0.2 µM; under setting [2], 0.04 to 0.2 µM. In the case of `COC(=O)c1cccc(NC(=O)c2c(Oc3ccc(C#N)cc3OC)nnc(C(F)(F)F)c2C)c1` [Compound 1546, methyl 3-[[3-(4-cyano-2-methoxy-phenoxy)-5-methyl-6-(trifluoromethyl)pyridazine-4-carbonyl]amino]benzoate], the IC50 was 0.04 to 0.2 µM under setting [1] and 0.04 to 0.2 µM under setting [2]. `Cc1nc(F)ccc1Oc1ncc(C(F)(F)F)cc1C(=O)Nc1cccc([S@](C)(=N)=O)c1` (single isomer, unassigned) [Compound 1593]: the IC50 was ≤ 0.02 µM under setting [1] and ≤ 0.02 µM under setting [2].
